Structures are written as SMILES. Active and inactive are the calls of the source.

The bioavailability is dose-corrected exposure relative to a reference, in per cent. Usually clearance stands for a measure of how efficiently the substance is removed, as volume per time. Broadly, the half-life is the time needed for the level to fall by half in the phase considered. In general, ED50 refers to the dose that gives a 50% effect, or the effect in half of the subjects. The Cmax is the peak of the concentration-time curve. Usually inhibition in vivo stands for the percentage by which the read-out fell short of the control. Usually Tmax stands for the time at which the peak concentration occurs. By AUC is commonly meant the area under the concentration-time curve, a measure of exposure. A lower AUC goes with low exposure. For orientation: IC50 means the concentration that inhibits the measured activity by half. Read a low IC50 as greater potency. By Ki is commonly meant a dissociation constant, usually derived from enzyme kinetics or from competition with a known ligand. Read a low Ki as a stronger hold on the target.

A short description of data set [1]: Oral bioavailability in rat at 15 mg/kg. To be noted: in vivo. The class given is ADME, organism-based.
A short description of data set [2]: Clearance in rat at 15 mg/kg, iv. The class given is ADME, organism-based. Further details: dose 15 mg/kg, route intravenous. Particulars: in vivo.
Data set [3] can be described thus: Binding affinity to opioid receptor at 10 uM.
A short description of data set [4]: Half life in human liver microsomes by LC/MS/MS. The class given is ADME, Microsome. For orientation: Microsomes from liver hold many membrane-bound enzymes, among them those of drug oxidation.
The subject of data set [5] is Mus musculus. The experiment in a line: Analgesic activity in po dosed mouse assessed as inhibition of acetic acid-induced writhing response administered 0.5 to 1 hr before acetic acid challenge. Format: functional.
Data set [6] relates to Mus musculus. The experiment in a line: Analgesic activity in ip dosed mouse assessed as inhibition of acetic acid-induced writhing response administered 0.5 to 1 hr before acetic acid challenge. Format: functional. A general note: An intraperitoneal irritant provokes the stretching counted in writhing tests.
A short description of data set [7]: Half life in rat liver microsomes by LC/MS/MS. The class given is ADME, Microsome.
A short description of data set [8]: Cmax in rat at 15 mg/kg, po. Particulars: in vivo. Further details: dose 15 mg/kg, route oral. Format: ADME, organism-based.
Data set [9] deals with Sodium-dependent noradrenaline transporter (Homo sapiens) (UniProt P23975). The experiment in a line: Binding affinity to norepinephrine transporter at 10 uM.
Chain of Sodium-dependent noradrenaline transporter (Homo sapiens) (P23975 whole entry): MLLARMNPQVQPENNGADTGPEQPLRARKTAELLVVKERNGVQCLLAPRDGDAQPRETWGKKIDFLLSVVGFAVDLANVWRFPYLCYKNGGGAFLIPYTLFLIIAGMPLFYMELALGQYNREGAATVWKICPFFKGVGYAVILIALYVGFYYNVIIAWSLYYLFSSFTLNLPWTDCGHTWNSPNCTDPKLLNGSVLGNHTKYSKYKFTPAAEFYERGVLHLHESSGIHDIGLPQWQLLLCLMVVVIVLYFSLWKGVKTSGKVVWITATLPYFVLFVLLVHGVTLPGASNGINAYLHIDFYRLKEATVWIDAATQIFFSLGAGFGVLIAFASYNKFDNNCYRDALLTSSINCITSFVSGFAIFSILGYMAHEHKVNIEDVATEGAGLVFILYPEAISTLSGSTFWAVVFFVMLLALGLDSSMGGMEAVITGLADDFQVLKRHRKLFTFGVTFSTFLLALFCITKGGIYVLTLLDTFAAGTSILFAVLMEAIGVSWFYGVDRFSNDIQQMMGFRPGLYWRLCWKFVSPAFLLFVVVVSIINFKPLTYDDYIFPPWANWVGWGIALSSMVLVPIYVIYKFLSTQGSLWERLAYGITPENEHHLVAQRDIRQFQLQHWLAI
The test system of data set [10] is Mus musculus. As to the kind of experiment: Inhibition of DOI-induced head twitches in ip dosed mouse. Format: functional, organism-based.
In data set [11] the test system is Mus musculus. As to the kind of experiment: Inhibition of 5-hydroxytryptophan-induced head twitches in mouse at 10 mg/kg, ip. The class given is functional. Particulars: route intraperitoneal.
For data set [12], the system named is Mus musculus. The experiment in a line: Inhibition of DOI-induced head twitches in mouse at 3 mg/kg, ip. Format: functional. Particulars: route intraperitoneal.
Data set [13] can be described thus: Tmax in rat at 15 mg/kg, po. Particulars: in vivo. Further details: dose 15 mg/kg, route oral. The class given is ADME, organism-based.
A short description of data set [14]: AUCall in rat at 15 mg/kg, po. Particulars: plasma. The class given is ADME, organism-based. Set-up: dose 15 mg/kg, route oral.
The species entered for data set [15] is Mus musculus. As to the kind of experiment: Antinociceptive activity in mouse by hot plate test in presence of naloxone. The class given is functional, organism-based. On the technique in general: Hot-plate and tail-flick tests time the reaction to a heat stimulus.
Data set [16] concerns Mus musculus. The experiment in a line: Inhibition of DOI-induced head twitches in mouse at 1 mg/kg, ip. To be noted: route intraperitoneal. The class given is functional.
The nature of data set [17]: AUCall in rat at 15 mg/kg, iv. Format: ADME, organism-based. Set-up: dose 15 mg/kg, route intravenous. Particulars: plasma.
Data set [18] deals with Mus musculus. The experiment in a line: Neurotoxicity in mouse assessed as myoreflexation or sedation at 139 mg/kg, po by rotarod test. Format: toxicity, organism-based. Further details: dose 139 mg/kg, route oral. Particulars: in vivo.
Data set [19] concerns Mus musculus. As to the kind of experiment: Inhibition of 5-hydroxytryptophan-induced head twitches in mouse at 3 mg/kg, ip. The class given is functional. To be noted: route intraperitoneal.
The subject of data set [20] is Mus musculus. The experiment in a line: Inhibition of DOI-induced head twitches in mouse at 0.3 mg/kg, ip. To be noted: route intraperitoneal. Format: functional.
The target in data set [21] is T1, 5-hydroxytryptamine receptor 1A (Rattus norvegicus, UniProt P19327).
T1 sequence (P19327 whole entry): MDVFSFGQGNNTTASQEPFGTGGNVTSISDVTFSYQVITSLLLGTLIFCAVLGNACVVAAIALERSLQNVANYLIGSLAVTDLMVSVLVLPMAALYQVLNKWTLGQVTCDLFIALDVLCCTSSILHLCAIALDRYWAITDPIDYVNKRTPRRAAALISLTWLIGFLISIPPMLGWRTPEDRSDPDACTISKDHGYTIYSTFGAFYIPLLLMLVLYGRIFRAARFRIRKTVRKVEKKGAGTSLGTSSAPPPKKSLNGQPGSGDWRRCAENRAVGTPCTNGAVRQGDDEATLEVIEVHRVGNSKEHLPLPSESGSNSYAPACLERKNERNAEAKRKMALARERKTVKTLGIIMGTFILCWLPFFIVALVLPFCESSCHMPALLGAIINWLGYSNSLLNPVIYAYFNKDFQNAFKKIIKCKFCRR
As to the kind of experiment: Displacement of [3H]-8-OH-DPAT from 5HT1A receptor in rat hippocampus. Format: tissue-based.

Data set [22] addresses 5-hydroxytryptamine receptor 2A (Homo sapiens, UniProt P28223). The experiment in a line: Antagonist activity at 5HT2A receptor. Format: functional.
The nature of data set [23]: Half life in rat at 15 mg/kg, iv. The class given is ADME, organism-based. Set-up: dose 15 mg/kg, route intravenous. To be noted: in vivo.
Data set [24] in a line: Binding affinity to prostaglandin synthetase at 10 uM.
Data set [25] in a line: Cmax in rat at 15 mg/kg, iv. Format: ADME, organism-based. Further details: dose 15 mg/kg, route intravenous. Particulars: in vivo.
Data set [26] deals with Mus musculus. The experiment in a line: Neurotoxicity in mouse assessed as myoreflexation or sedation at 52.7 mg/kg, ip by rotarod test. To be noted: in vivo. Further details: dose 52.7 mg/kg, route intraperitoneal. Format: toxicity, organism-based.
Data set [27] has as its target Sigma non-opioid intracellular receptor 1 (Homo sapiens, UniProt Q99720). The experiment in a line: Binding affinity to Sigma1.
Data set [28] has as its target 5-hydroxytryptamine receptor 2B (Homo sapiens, UniProt P41595). The experiment in a line: Binding affinity to 5HT2B receptor.
Data set [29] can be described thus: Volume of distribution at steady state in rat at 15 mg/kg, iv. Format: ADME, organism-based. Set-up: dose 15 mg/kg, route intravenous. To be noted: in vivo, read-out: Vdss.
Data set [30] concerns Mus musculus. The experiment in a line: Antinociceptive activity in po dosed mouse by hot plate test. The class given is functional.
In data set [31] the test system is Rattus norvegicus. The experiment in a line: Antiinflammatory activity in po dosed rat persistent inflammatory pain model assessed as inhibition of carrageenan-induced mechanical hyperalgesia. The class given is functional.
Data set [32] is described as follows: Half life in rat at 15 mg/kg, po. Format: ADME, organism-based. Further details: dose 15 mg/kg, route oral. To be noted: in vivo.
Data set [33] concerns the target 5-hydroxytryptamine receptor 2A (Rattus norvegicus, UniProt P14842). The experiment in a line: Displacement of [3H]-ketanserin from 5HT2A receptor in rat cortical membrane. The class given is cell membranes.
Data set [34] deals with Mus musculus. As to the kind of experiment: Neurotoxicity in mouse at 60 mg/kg, ip by rotarod test. The class given is toxicity, organism-based. Further details: dose 60 mg/kg, route intraperitoneal. Particulars: in vivo.
The subject of data set [35] is Mus musculus. The experiment in a line: Analgesic activity in mouse assessed as inhibition of acetic acid-induced writhing response at 10 mg/kg, ip administered 0.5 to 1 hr before acetic acid challenge. Format: functional. Particulars: route intraperitoneal.
The subject of data set [36] is Mus musculus. As to the kind of experiment: Neurotoxicity in mouse at 100 mg/kg, ip by rotarod test. To be noted: in vivo. Format: toxicity, organism-based. Set-up: dose 100 mg/kg, route intraperitoneal.
Data set [37] relates to Mus musculus. As to the kind of experiment: Neurotoxicity in mouse at 30 mg/kg, ip by rotarod test. The class given is toxicity, organism-based. Further details: dose 30 mg/kg, route intraperitoneal. To be noted: in vivo.
Data set [38] concerns Mus musculus. As to the kind of experiment: Analgesic activity in mouse assessed as inhibition of acetic acid-induced writhing response at 10 mg/kg, po administered 0.5 to 1 hr before acetic acid challenge. The class given is functional.
Data set [39] concerns Mus musculus. As to the kind of experiment: Neurotoxicity in mouse at 20 mg/kg, ip by rotarod test. To be noted: in vivo. The class given is toxicity, organism-based. Further details: dose 20 mg/kg, route intraperitoneal.
Data set [40] relates to Rattus norvegicus. The experiment in a line: Antiinflammatory activity in rat persistent inflammatory pain model assessed as inhibition of carrageenan-induced mechanical hyperalgesia at 100 mg/kg, po. Format: functional.
Data set [41] relates to Mus musculus. The experiment in a line: Antinociceptive activity in mouse up to 100 mg/kg, ip by hot plate test. The class given is functional, organism-based. Further details: dose 100 mg/kg.
Data set [42] relates to Mus musculus. The experiment in a line: Antinociceptive activity in late phase ip dosed mouse by formalin test. The class given is functional.
For data set [43], the system named is Mus musculus. As to the kind of experiment: Antinociceptive activity in late phase po dosed mouse by formalin test. Format: functional.

Chain of 5-hydroxytryptamine receptor 2B (P41595 whole entry): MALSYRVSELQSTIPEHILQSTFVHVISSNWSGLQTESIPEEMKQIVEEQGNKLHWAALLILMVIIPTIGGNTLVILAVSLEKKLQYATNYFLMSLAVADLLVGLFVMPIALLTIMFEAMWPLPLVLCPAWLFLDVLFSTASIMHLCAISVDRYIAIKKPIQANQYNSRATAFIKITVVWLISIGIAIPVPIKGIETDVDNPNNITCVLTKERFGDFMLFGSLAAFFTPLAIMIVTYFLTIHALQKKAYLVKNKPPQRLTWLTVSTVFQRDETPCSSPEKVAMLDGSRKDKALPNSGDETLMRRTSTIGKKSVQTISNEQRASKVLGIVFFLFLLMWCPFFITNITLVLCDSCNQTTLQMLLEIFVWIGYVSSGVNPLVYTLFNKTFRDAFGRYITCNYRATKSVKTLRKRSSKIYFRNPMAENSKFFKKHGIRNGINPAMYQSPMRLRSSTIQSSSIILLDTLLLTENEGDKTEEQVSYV
Chain of 5-hydroxytryptamine receptor 2A (Rattus norvegicus, UniProt P14842) (P14842 whole entry): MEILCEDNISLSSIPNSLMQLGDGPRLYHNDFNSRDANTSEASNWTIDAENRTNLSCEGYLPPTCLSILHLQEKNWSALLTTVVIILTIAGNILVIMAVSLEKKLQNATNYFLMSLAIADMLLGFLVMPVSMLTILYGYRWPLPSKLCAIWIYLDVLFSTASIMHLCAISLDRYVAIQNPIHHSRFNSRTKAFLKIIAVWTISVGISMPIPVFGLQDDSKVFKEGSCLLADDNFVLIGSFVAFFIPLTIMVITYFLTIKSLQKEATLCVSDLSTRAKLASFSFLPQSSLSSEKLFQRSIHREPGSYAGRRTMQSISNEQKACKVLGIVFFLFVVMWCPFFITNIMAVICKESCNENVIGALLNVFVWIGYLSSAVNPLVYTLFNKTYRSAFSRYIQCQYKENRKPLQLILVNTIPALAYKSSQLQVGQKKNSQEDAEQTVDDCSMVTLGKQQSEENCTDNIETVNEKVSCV
Chain of Sigma non-opioid intracellular receptor 1 (Q99720 whole entry): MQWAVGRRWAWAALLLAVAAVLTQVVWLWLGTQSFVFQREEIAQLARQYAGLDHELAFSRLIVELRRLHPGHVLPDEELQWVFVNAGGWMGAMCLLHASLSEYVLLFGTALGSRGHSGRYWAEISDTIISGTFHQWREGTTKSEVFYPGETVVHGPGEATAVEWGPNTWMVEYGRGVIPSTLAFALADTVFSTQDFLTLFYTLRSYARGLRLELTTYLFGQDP
Chain of 5-hydroxytryptamine receptor 2A (Homo sapiens, UniProt P28223) (P28223 whole entry): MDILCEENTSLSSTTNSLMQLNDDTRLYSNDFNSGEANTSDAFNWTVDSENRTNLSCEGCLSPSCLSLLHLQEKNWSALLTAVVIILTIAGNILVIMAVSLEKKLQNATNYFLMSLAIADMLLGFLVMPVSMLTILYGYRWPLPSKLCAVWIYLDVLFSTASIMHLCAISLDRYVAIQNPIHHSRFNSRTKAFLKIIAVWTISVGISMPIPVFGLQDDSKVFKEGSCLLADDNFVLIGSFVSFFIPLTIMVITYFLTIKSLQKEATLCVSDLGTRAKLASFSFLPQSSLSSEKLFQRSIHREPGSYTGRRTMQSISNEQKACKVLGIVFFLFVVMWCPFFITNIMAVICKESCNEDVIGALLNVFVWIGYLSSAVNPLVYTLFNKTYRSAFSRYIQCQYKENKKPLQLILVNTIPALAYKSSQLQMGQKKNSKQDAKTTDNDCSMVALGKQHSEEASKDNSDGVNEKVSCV

In turn, `COc1ccc(N2CCN(CC[C@@H](OC(N)=O)c3ccccc3)CC2)cc1` gave a bioavailability in data set [1] of 73.8%. In data set [2], this compound showed a clearance of 14.1 mL/min/kg. Also, the inhibition entry in data set [3], in [9] and in data set [24] was “inactive” each time. The half-life in data set [4] was 5.32 h; in [7], 1.52 h; in [23] it was 1.8 h; in data set [32], 2.6 h. For the same compound, the ED50 turned out to be 2.65 mg/kg in data set [5], 0.94 mg/kg in data set [6], 2.86 mg/kg in [30] and 0.68 mg/kg in [31]. The Cmax was determined as 2200 ng/mL in data set [8] and 9950 ng/mL in [25]. The inhibition entry in [10] was “Dose-dependent effect”. This compound yielded an inhibition in vivo at 10 mg/kg in [11] of 100%. In addition, the inhibition in vivo at 3 mg/kg in data set [12] came to 89.3%; in [19] it was 46.2%. Also, the Tmax in data set [13] amounted to 1.1 h. The AUC in [14] came out at 13200 ng·h/mL; in data set [17], 17800 ng·h/mL. Further, in data set [15], the result was Active. Besides, testing at 1 mg/kg in data set [16] gave an inhibition in vivo of 61.4%. The Activity entry in data set [18] is “Non-toxic”; in [26], “Non-toxic”; in [31] it was “Dose-dependent effect”. Moreover, the inhibition in vivo at 0.3 mg/kg in [20] turned out to be 40%. Besides, the results for the half-maximal inhibitory concentration (IC50) in data set [21], in data set [22] and in data set [33] were 8.82 µM, 5.8 µM and 5.77 µM, respectively. Further, the Ki amounted to 0.392 µM in data set [27] and 0.164 µM in data set [28]. The Vd in data set [29] was found to be 1.77 L/kg.

Regarding `NC(=O)OC(CCN1CCN(c2cccc(Cl)c2)CC1)c1ccccc1` (stereo not drawn), the median effective dose (ED50) in data set [6] turned out to be 0.57 mg/kg. In addition, the Activity result in data set [34] is “Toxic”.

As for `NC(=O)OC(CCN1CCN(c2cccc(C(F)(F)F)c2)CC1)c1ccccc1` (stereo not drawn), the inhibition in vivo at 10 mg/kg in [35] amounted to 14.6%. For the same compound, the Activity entry in [36] was “Toxic”.

With `COc1ccccc1N1CCN(CCC(OC(N)=O)c2ccccc2)CC1` (single isomer, unassigned), in data set [6], the 50% effective dose (ED50) came to 0.67 mg/kg. Moreover, the Activity entry in data set [37] is recorded as “Toxic”.

Regarding `NC(=O)OC(CCN1CCN(c2ccc(F)cc2)CC1)c1ccccc1` (single isomer, unassigned), in data set [6], the median effective dose (ED50) came to 0.55 mg/kg. For the same compound, the inhibition in vivo at 10 mg/kg in data set [38] stood at 88%. Also, the half-inhibitory concentration (IC50) in data set [21] is 10.5 µM. Further, in data set [39], the Activity result is recorded as “Toxic”.

On to `O=C(c1ccccc1)c1ccc2n1CCC2C(=O)O` (stereo not drawn) [KETOROLAC], for which, in data set [40], the inhibition in vivo at 100 mg/kg is 36.4%. Moreover, the result in data set [41] was inactive. Also, the results for the 50% effective dose (ED50) in data set [42] and in data set [43] were 12.9 mg/kg and 17.9 mg/kg, respectively.

These data come from ChEMBL document CHEMBL2157932, “Synthesis and pharmacological evaluation of carbamic acid 1-phenyl-3-(4-phenyl-piperazine-1-yl)-propyl ester derivatives as new analgesic agents” (Bioorg Med Chem Lett, 2012).
